Data taken from ChEMBL document CHEMBL1201862, “PubChem BioAssay data set” (2004).
Activity calls are given as the source filed them.

How the values were obtained:
[1] = THP-1 cell cytotoxicity, dose response, cytotoxicity control for non-replicating M. tuberculosis project (AID 489025); type: functional
cells = type: functional
[2] = NIH3T3 cell viability loss – ATP luminescence, mouse fibroblasts, counter-screen, dose response (AID 2010); type: functional, cell-based;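 further: cells exposed to compound for about 90 hours before reading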
[3] = Trypanosoma cruzi growth suppression in host cells – NIH3T3 host cells, beta-gal luminescence, confirmation (AID 2044); type: functional, cell-based;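 further: intracellular parasites grown in NIH/3T3 mouse fibroblasts as host cells; luminescent beta-galactosidase reporter signal from transgenic T. cruzi replicating inside host cells; inhibitors lower the luminescence signal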
[4] = Vero E6 cell cytotoxicity, dose response, cytotoxicity control for non-replicating M. tuberculosis project, secondary assay (AID 492998); type: functional, VeroE6; conditions: Vero C1008
Exodeoxyribonuclease V = biological target: T1, Exodeoxyribonuclease V (Escherichia coli (strain K12), UniProt P04993+P07648+P08394); assay: RecBCD inhibition via phage-restricted bacterial growth – absorbance, V66 E. coli, mutant T4 phage, counter-screen for AddAB inhibitor project, dose response (AID 492957); type: functional, cell-based, Escherichia coli str. K-12 substr. MG1655
T1 sequence (P04993 whole entry): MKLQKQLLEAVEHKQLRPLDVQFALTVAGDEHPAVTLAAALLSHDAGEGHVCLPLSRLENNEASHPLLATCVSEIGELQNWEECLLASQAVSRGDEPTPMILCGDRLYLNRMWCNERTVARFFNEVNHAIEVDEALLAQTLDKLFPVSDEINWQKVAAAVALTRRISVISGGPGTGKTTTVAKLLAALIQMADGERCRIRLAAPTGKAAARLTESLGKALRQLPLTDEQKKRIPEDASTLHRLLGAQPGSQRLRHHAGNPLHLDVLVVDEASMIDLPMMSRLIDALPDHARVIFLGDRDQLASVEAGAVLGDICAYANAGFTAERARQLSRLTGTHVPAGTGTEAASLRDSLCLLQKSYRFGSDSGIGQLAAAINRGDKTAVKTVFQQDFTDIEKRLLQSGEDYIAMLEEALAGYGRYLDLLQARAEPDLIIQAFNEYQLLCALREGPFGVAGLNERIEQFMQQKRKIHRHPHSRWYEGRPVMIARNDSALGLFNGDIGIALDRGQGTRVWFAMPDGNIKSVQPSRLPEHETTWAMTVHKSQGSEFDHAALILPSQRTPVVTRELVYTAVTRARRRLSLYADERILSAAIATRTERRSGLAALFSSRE
T1 sequence (P07648 whole entry): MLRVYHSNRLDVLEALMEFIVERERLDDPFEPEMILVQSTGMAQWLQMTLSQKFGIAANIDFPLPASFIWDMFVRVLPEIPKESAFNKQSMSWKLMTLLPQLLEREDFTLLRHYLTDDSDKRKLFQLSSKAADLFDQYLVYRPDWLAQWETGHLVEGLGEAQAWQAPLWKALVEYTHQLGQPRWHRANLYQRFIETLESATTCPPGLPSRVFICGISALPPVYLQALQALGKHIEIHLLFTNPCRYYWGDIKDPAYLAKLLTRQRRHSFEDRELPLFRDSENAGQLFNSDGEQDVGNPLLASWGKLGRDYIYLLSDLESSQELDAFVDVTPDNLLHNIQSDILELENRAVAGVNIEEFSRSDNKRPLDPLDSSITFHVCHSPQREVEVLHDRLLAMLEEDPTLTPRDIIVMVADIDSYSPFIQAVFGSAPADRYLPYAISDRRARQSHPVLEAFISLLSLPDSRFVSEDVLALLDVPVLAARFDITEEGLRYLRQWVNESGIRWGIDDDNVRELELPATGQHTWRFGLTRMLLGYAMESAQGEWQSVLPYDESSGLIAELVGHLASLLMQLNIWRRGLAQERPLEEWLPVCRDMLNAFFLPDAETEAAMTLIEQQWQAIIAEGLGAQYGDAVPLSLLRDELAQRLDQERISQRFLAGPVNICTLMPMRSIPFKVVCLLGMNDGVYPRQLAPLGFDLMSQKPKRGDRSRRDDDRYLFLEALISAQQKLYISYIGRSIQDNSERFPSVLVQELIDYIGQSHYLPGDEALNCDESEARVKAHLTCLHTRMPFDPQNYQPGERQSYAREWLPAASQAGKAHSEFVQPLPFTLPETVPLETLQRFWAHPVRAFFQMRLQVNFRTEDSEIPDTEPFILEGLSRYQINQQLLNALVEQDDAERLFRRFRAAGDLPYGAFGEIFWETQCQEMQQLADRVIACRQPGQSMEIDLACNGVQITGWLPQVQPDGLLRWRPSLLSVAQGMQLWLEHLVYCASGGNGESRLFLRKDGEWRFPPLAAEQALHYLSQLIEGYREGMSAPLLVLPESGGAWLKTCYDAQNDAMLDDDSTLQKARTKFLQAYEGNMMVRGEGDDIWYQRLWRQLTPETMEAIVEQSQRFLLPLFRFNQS
T1 sequence (P08394 whole entry): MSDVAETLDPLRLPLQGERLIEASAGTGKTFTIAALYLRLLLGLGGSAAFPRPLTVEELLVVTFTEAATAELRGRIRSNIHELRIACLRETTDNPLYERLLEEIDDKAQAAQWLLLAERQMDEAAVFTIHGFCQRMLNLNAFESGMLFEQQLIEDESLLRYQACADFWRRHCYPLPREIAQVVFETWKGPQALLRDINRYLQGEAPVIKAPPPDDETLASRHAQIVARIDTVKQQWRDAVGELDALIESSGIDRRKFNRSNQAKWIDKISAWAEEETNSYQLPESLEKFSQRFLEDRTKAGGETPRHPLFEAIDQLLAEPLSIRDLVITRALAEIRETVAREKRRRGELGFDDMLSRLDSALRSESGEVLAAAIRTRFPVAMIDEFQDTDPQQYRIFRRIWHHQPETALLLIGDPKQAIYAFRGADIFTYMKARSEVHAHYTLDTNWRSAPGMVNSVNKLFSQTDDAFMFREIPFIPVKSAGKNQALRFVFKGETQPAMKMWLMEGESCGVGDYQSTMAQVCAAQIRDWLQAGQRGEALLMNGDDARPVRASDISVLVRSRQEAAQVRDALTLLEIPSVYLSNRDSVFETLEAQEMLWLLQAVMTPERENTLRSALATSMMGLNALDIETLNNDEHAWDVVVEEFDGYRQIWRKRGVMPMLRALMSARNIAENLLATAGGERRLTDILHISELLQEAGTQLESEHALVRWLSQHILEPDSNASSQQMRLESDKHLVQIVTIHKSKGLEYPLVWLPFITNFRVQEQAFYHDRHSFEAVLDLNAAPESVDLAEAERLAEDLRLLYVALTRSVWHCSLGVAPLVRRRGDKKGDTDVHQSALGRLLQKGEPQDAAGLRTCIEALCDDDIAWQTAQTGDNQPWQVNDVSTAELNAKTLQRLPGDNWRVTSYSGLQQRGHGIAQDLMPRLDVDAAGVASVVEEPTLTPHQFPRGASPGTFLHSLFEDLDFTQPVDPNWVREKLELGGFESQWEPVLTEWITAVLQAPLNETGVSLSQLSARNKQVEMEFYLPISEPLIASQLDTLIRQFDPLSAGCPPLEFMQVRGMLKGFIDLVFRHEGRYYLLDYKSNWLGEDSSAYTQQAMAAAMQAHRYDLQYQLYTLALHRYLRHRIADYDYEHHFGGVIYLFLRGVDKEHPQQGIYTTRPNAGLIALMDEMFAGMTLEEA

[5] = Counterscreen for AddAB inhibitors: absorbance-based bacterial cell-based high throughput dose response assay for inhibitors of bacterial viability. [Related pubchem assays (depositor defined):AID435030, AID449728, AID449731, AID488942, AID488955, AID488956]; type: functional
[6] = intracellular Trypanosoma cruzi inhibitors in host cells – cell-based, plate reader, cherry-pick samples, set 3, dose response (AID 651818); type: functional;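 further: compounds incubated with infected cells for about four days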
Beta Lactamase = Beta Lactamase (Pseudomonas aeruginosa, UniProt Q932Y6); assay: BLA reporter interference, concentration series – BLA reporter cells, FRET fluorescence, artefact control for TLR9-MyD88 binding inhibitor project, dose response (AID 588341); type: cell-based;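 further: cell based assay in CHO-K1 cells stably expressing beta-lactamase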
CHO = CHO cell viability loss, potency – luminescence, cytotoxicity control for TLR9-MyD88 binding inhibitor project, dose response (AID 588339); type: functional, cell-based, hamster; conditions: Cricetulus griseus;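 further: CHO cells stably coexpressing TLR9 and MyD88 fusions from primary screen; compound exposure lasted 48 hours before viability readout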
[7] = fluconazole-exposed Candida albicans growth modulators – fluorescence, retest, confirmation (AID 2467); type: functional, cell-based
[8] = NIH-3T3 fibroblast cytotoxicity, dose response, cytotoxicity control, cell-based, fluorescence, Alamar Blue, secondary assay (AID 2327); type: functional;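 further: NIH-3T3 mouse fibroblasts cultured with fluconazole at 8 µg/mL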
Nonstructural protein 1 = Nonstructural protein 1 (Influenza A virus, UniProt Q194T2); type: functional, Influenza A virus (A/California/07/2009(H1N1))
Aurora kinase B = Aurora kinase B (Homo sapiens, UniProt Q96GD4); type: functional
Aurora kinase A = biological target: T2, Aurora kinase A (Homo sapiens, UniProt O14965); type: functional;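 further: value from the Navigating the Kinome kinase panel profiling, panel entry STK6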
T2 sequence (O14965 whole entry): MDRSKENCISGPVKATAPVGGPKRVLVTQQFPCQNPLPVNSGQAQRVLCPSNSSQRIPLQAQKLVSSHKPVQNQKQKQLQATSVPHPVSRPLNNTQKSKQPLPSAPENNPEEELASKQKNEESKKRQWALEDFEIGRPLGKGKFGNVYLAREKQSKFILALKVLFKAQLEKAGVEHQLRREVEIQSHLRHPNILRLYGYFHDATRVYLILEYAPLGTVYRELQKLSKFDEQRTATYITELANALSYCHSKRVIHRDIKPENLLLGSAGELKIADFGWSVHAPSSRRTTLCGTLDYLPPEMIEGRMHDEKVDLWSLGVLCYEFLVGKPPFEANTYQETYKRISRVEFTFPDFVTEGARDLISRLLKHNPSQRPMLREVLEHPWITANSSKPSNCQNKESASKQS

HEK293 [9] = assay: cells; conditions: Homo sapiens
HEK293 [10] = assay: cells; conditions: Homo sapiens; remark: listed apart in the source
Cytochrome P450 2C19 = Cytochrome P450 2C19 (Homo sapiens, UniProt P33261); assay: Cytochrome panel assay with activity outcomes. Panel member name: p450-cyp2c19 Compounds with AC50 equal or less than 10 uM are considered active; type: functional; conditions: read-out: AC50
Cytochrome P450 3A4 = Cytochrome P450 3A4 (Homo sapiens, UniProt P08684);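 further: CYP3A4 tested as one member of a cytochrome P450 panel screen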
Cytochrome P450 2C9 = Cytochrome P450 2C9 (Homo sapiens, UniProt P11712)
[11] = viability of uninfected HEp-2 cells – cell-based, HTS, cytotoxicity control for RSV inhibitor project, dose response (AID 2410); type: functional; conditions: human respiratory syncytial virus
Streptococcus = assay: GAS UMAA2166 growth inhibition – luminescence, BacTiterGlo, counter-screen for streptokinase expression inhibitor project, dose response (AID 1915); type: functional, organism-based;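 further: potency for reduction of bacterial viability or growth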
[12] = tested on: Streptococcus sp. 'group A'; assay: Streptococcus pyogenes SK(-)GAS viability under kanamycin – luminescence, BacTiterGlo, confirmation, counter-screen for streptokinase expression inhibitor project, dose response (AID 1900); type: functional, organism-based
[13] = Luminescence Cell-Based Dose Retest to Confirm Inhibitors of Cancer Stem Cells. [Related pubchem assays (depositor defined):AID2717, AID2721]; type: functional; conditions: Homo sapiens
[14] = activation of miR-122 Renilla sensor silencing – cell-based, Huh7 psiCHECK-miR122, Renilla luciferase, cherry-picked, dose response (AID 651956); type: functional;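 further: huh7 hepatoma cells stably carrying a psiCHECK-2 miR-122 sensor plasmid; renilla luciferase signal reporting endogenous miR-122 activity after 48 h compound exposure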

Beta Lactamase, sequence (Q932Y6 whole entry, the tested form may be a part): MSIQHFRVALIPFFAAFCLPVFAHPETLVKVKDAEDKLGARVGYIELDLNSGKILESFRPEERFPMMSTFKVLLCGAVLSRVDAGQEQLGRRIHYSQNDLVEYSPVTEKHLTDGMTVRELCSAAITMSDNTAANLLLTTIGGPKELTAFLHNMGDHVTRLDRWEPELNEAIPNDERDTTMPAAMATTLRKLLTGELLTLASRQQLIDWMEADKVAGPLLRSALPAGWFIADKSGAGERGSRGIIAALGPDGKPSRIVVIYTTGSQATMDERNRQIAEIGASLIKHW
Cytochrome P450 3A4, sequence (P08684 whole entry): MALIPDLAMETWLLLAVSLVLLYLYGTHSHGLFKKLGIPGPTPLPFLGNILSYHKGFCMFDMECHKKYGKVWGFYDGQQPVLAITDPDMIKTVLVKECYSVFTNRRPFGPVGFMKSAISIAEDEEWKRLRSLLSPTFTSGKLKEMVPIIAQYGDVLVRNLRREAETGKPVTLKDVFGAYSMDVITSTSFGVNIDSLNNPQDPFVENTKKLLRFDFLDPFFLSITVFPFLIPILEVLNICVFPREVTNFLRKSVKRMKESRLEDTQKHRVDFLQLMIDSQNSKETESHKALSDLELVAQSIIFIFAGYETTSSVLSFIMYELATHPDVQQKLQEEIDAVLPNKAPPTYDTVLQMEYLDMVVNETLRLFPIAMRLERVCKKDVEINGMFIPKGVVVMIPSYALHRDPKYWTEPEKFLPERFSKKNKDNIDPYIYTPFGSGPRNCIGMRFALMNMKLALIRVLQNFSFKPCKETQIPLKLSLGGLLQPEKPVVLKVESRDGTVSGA
Nonstructural protein 1, sequence (Q194T2 whole entry): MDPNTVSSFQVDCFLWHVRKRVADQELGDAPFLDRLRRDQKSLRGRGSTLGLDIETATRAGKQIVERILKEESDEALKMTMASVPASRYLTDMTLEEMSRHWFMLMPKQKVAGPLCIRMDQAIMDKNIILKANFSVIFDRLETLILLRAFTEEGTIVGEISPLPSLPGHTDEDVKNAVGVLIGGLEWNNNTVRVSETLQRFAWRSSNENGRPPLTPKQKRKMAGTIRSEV
Cytochrome P450 2C19, sequence (P33261 whole entry): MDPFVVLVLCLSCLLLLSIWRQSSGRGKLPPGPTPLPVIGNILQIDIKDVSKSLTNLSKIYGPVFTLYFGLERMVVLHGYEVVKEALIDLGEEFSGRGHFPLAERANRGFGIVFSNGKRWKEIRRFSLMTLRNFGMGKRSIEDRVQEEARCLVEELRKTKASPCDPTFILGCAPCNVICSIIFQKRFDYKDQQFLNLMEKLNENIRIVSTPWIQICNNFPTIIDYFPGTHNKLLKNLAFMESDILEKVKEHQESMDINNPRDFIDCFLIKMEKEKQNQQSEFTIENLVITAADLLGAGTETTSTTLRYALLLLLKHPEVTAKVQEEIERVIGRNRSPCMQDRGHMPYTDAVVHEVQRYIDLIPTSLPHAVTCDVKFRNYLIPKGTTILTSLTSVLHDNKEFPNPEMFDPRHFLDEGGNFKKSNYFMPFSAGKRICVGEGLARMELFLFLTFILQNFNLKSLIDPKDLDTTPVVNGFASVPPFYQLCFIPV
Cytochrome P450 2C9, sequence (P11712 whole entry): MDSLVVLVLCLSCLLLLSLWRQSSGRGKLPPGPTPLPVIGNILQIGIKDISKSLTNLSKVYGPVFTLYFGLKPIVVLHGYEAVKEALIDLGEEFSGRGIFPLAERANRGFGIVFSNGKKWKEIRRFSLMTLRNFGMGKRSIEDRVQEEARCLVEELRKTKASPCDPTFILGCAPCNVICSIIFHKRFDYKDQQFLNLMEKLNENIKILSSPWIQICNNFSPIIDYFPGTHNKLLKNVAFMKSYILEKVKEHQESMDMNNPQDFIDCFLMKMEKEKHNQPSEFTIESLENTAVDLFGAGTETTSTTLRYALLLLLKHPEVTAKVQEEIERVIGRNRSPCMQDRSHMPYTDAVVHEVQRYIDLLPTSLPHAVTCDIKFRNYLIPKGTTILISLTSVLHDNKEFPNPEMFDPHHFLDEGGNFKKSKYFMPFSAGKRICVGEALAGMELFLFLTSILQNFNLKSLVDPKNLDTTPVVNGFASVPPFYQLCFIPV
Aurora kinase B, sequence (Q96GD4 whole entry): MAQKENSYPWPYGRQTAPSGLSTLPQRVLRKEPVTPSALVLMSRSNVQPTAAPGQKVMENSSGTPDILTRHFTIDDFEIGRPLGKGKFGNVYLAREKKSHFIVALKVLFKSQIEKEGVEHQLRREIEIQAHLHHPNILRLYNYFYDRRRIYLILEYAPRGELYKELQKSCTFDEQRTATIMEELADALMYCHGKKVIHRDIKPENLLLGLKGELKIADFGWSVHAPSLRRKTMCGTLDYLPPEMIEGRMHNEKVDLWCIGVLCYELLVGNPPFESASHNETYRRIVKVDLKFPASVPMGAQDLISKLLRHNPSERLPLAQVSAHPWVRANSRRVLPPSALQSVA

Compound: CCCn1c(NC(=O)c2ccc([N+](=O)[O-])o2)nc2ccccc21
- CC50 [1]: 17.1 µM (active)
- IC50 (cells): 1.51 µM (active)
- EC50 [2]: > 30 µM (not active)
- EC50 [3]: 0.128 µM (active)
- CC50 [4]: 13.3 µM (active)
- IC50 (Exodeoxyribonuclease V): > 118 µM (inactive)
- IC50 [5]: > 118 µM (inactive)

Compound: C[C@H]1CN([C@@H](C)CO)C(=O)Cc2cc(N(C)C)ccc2O[C@@H]1CN(C)Cc1ccc(C(=O)Nc2ccccc2N)cc1
- AC50 [6]: 0.794 µM (active)

Compound: C/C(=N\Nc1ccc([N+](=O)[O-])cc1)c1ccc2c(c1)OCO2
- IC50 (Beta Lactamase): 12.5 µM (inactive)
- IC50 (CHO): > 49.7 µM (inactive)
- EC50 [7]: > 38 µM (not active)
- EC50 [8]: > 150 µM (inactive)

Compound: C[C@@H]1CN([C@@H](C)CO)C(=O)Cc2cc(NS(=O)(=O)c3ccccc3)ccc2O[C@@H]1CN(C)S(=O)(=O)c1ccc(Cl)cc1
- AC50 [6]: 6.08 µM (active)

Compound: CN(C)c1ccc(N=Nc2ccccc2C(=O)OCC(=O)NC2CCCC2)cc1
- IC50 (Nonstructural protein 1): 20.4 µM (active)

Compound: COCCOC1CCC(n2nc(-c3ccc(Nc4nc5cc(Cl)ccc5o4)c(F)c3)c3c(N)ncnc32)CC1 (stereo unspecified)
- Ki (Aurora kinase B): 0.01 µM (active)
- Ki (Aurora kinase A): 0.0398 µM (active)

Compound: Cc1cccc(/C=N/NC(=O)c2cccc([N+](=O)[O-])c2)n1
- EC50 (HEK293 [9]): > 59.6 µM (inactive)
- EC50 (HEK293 [10]): > 59.6 µM (inactive)

Compound: O=C(Cc1ccccc1)Nc1nc(=O)c2ccccc2s1
- AC50 (Cytochrome P450 2C19): 2.82 µM (inconclusive)
- AC50 (Cytochrome P450 3A4): inconclusive
- AC50 (Cytochrome P450 2C9): 3.55 µM (inconclusive)

Compound: Cn1c2ccccc2c(=O)c2ccc(C#Cc3ccc(N)cc3)cc21
- IC50 (Beta Lactamase): 5.26 µM (active)
- CC50 [11]: > 50 µM (active)
- IC50 (CHO): > 49.8 µM (inactive)
- EC50 (Streptococcus): 2.12 µM (active)
- EC50 [12]: 1.92 µM (active)

Compound: Cc1ccsc1/C=C/c1ccc2cccc(O)c2n1
- AC50 [13]: 6.83 µM (active)
- EC50 (HEK293 [9]): > 59.7 µM (inactive)
- EC50 (HEK293 [10]): > 59.7 µM (inactive)

Compound: O=C(c1cccc(F)c1)N1CCC2(CC1)CN(c1ncccn1)C2
- AC50 (Cytochrome P450 3A4): inconclusive

Compound: COc1ccc(CN2CCC2(C)C(=O)Nc2cccc(NS(C)(=O)=O)c2)c2ccccc12 (stereo unspecified)
- EC50 (HEK293 [9]): > 59.7 µM (inactive)
- EC50 (HEK293 [10]): > 59.7 µM (inactive)

Compound: COc1ccccc1-c1ccc2c(c1)C(C)(Cc1cccc(C#N)c1)C(=O)N2 (stereo unspecified)
- EC50 (HEK293 [9]): > 59.6 µM (inactive)
- EC50 (HEK293 [10]): > 59.6 µM (inactive)

Compound: C[C@H]1CN([C@@H](C)CO)C(=O)c2cc(-c3ccc(C#N)cc3)cnc2O[C@H]1CN(C)C(=O)Nc1ccc(C(F)(F)F)cc1
- AC50 [14]: 7.44 µM (active)

Compound: C[C@@H]1CCCCO[C@@H](CN(C)Cc2ccc(Cl)c(Cl)c2)[C@@H](C)CN([C@H](C)CO)C(=O)c2cc(NC(=O)c3ccccc3)ccc2O1
- AC50 [6]: 6.25 µM (active)
